Test results taken from the supplement of paper PMC10307832.

What was measured:
Experiment in all cases: relative viability (nuclei count vs DMSO), 5 days (fraction); higher = more cells survive
[1] = compound: CC1=CC=C(C=C1)C(=O)CN2C3=C(CCCC3)SC2=N [Pifithrin_alpha] + CCNC(=O)c1noc(-c2cc(C(C)C)c(O)cc2O)c1-c1ccc(CN2CCOCC2)cc1 [Luminespib] (partner 0.01 µM)
Outline: (§1)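 Nuclei were stained with Hoechst during a one-step fixation (final 0.05% Triton X-100, 1% formaldehyde, 1 ug/ml Hoechst) carried out 5 days after dosing, then counted on 4× images. The cells, lung cancer lines in 1536-well plates, had been dosed by pin tool the day after seeding with one drug alone or a fixed anchor-drug dose plus five library-drug doses (not always all listed) in √10 steps. Relative viability is the nuclei count in treated wells divided by that in vehicle wells, and each value is the median of duplicate plates.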

[2] = compound: CC1=CC=C(C=C1)C(=O)CN2C3=C(CCCC3)SC2=N [Pifithrin_alpha] + CS(=O)(=O)CCNCc1ccc(-c2ccc3ncnc(Nc4ccc(OCc5cccc(F)c5)c(Cl)c4)c3c2)o1 [Lapatinib] (partner 2 µM)
Outline: as §1

Axitinib + Navitoclax = compound: CNC(=O)c1ccccc1Sc1ccc2c(/C=C/c3ccccn3)n[nH]c2c1 [Axitinib] + CC1(C)CCC(c2ccc(Cl)cc2)=C(CN2CCN(c3ccc(C(=O)NS(=O)(=O)c4ccc(N[C@H](CCN5CCOCC5)CSc5ccccc5)c(S(=O)(=O)C(F)(F)F)c4)cc3)CC2)C1 [Navitoclax] (partner 0.5 µM)
Outline: as §1

Bemcentinib + OSI-027 = compound: Nc1nc(Nc2ccc3c(c2)CC[C@@H](N2CCCC2)CC3)nn1-c1cc2c(nn1)-c1ccccc1CCC2 [Bemcentinib] + COc1cccc2cc(-c3nc([C@H]4CC[C@H](C(=O)O)CC4)n4ncnc(N)c34)[nH]c12 [OSI-027] (partner 0.5 µM)
Outline: as §1

Cell Line	relative viability ([1]; first compound 1 µM)	relative viability ([1]; first compound 3.162 µM)	relative viability ([1]; first compound 10 µM)	relative viability ([1]; first compound 31.62 µM)	relative viability ([1]; first compound 100 µM)	relative viability ([2]; first compound 1 µM)	relative viability ([2]; first compound 3.162 µM)	relative viability ([2]; first compound 10 µM)	relative viability ([2]; first compound 31.62 µM)	relative viability ([2]; first compound 100 µM)	relative viability (Axitinib + Navitoclax; first compound 0.005 µM)	relative viability (Axitinib + Navitoclax; first compound 0.01581 µM)	relative viability (Axitinib + Navitoclax; first compound 0.05 µM)	relative viability (Axitinib + Navitoclax; first compound 0.1581 µM)	relative viability (Axitinib + Navitoclax; first compound 0.5 µM)	relative viability (Bemcentinib + OSI-027; first compound 0.04 µM)	relative viability (Bemcentinib + OSI-027; first compound 0.1265 µM)	relative viability (Bemcentinib + OSI-027; first compound 0.4 µM)	relative viability (Bemcentinib + OSI-027; first compound 1.265 µM)	relative viability (Bemcentinib + OSI-027; first compound 4 µM)
NCI-H1666	1.05	1.01	0.877	0.821	0.645	0.503	0.405	0.286	0.337	0.365	0.975	0.91	1.01	0.914	1.18	0.82	0.991	0.883	0.885	0.923
NCI-H1993	0.716	0.658	0.704	0.621	0.66		0.761	0.73	0.764	0.777	1.13	0.937	1.07	1.03	1.1	0.592	0.534	0.557	0.548	0.506
CAL-12T	0.277	0.327	0.521		0.186	0.624	0.614	0.696	0.441	0.447	1.29	1.47	1.15	1.19	1.45	0.6	0.912	0.77	0.769	0.755
NCI-H460	0.0365	0.032	0.0293	0.0251	0.0317	1.2	1.21	1.1		0.533	1.12	0.964	1.17	0.984	1.18	0.73	1.2	0.827	0.686	0.851
NCI-H2170	0.849	0.53	0.742	0.542	0.705	0.263	0.274	0.287	0.266	0.263	0.661	0.715	0.621	0.617	0.707	0.739	0.743	0.76	0.729	0.807
LC-2-ad		1.14	1.01		0.601	0.986	1.03	0.935	0.576	0.759	0.572	0.576	0.532	0.506	0.573	0.892	0.906	0.761	0.964	0.927
NCI-H322M	0.865	0.868	0.841	0.647	0.766	0.578	0.621	0.557	0.635	0.613	1.18	1.14	1.07	1.08	1.07	0.585	0.596	0.597	0.621	0.597
NCI-H1651	0.988	1.27	0.944	0.438	0.625	0.633	0.763	0.865	0.537	0.741	1.07	0.984	1.06	1.1	1.15	0.771	0.811	0.738	0.741	0.74
NCI-H1437	1.27	1.2	1.08	0.728	0.947	0.946	0.809	0.898	0.507	0.377	1.14	1.07	1.13	1.11	1.09	0.884	0.845	0.995	0.961	0.915
NCI-H1355	0.642	0.496	0.516	0.401	0.409	0.765	0.756	0.699	0.616	0.702	0.992	0.921	0.948	1.01	0.991	0.379	0.412	0.46	0.399	0.44
NCI-H1755	0.5	0.601	0.562	0.315	0.272	0.96	1.01	0.966	0.812	1.23	1.04	0.92	0.99	0.964	1	0.79	0.711	0.758	0.793	0.732
SK-LU-1	0.216	0.188	0.213		0.165	0.937	0.911	0.948	0.599	0.935	0.955	1.2	0.932	0.812	1.13	0.37	0.382	0.35	0.369	0.331
NCI-H2126	0.751	0.956	0.783	0.709	0.72	0.614	0.643	0.68	0.536	0.658	0.81	0.877	0.824	0.841	0.765	0.679	0.692	0.756	0.688	0.683
NCI-H1793		0.168	0.17	0.186	0.194	0.692	0.716	0.505	0.867	0.739	0.438	0.386	0.424	0.514	0.504	0.265	0.305	0.299		0.282
HOP-62	1.07	1.05	1.04	0.776	1.19	0.886	1.21	0.991	0.714	1.23	1.07	1.06	1.02	1.06	1.12	0.958	0.904	0.845	0.853	0.9
